Test results reported in PMC5833756, “A novel ruthenium complex with xanthoxylin induces S-phase arrest and causes ERK1/2-mediated apoptosis in HepG2 cells through a p53-independent pathway” (Cell Death & Disease, 2018).
Where two headings read alike, the source gives them in different places.

Columns and labels:
SCC-15 = type: cell-based, human; conditions: SCC-15 (human oral squamous cell carcinoma), 72 h
[1] = for Initial body weight: before treatment; for Final body weight / Survival / Differential leukocytes: Eosinophils / Differential leukocytes: Lymphocytes / Differential leukocytes: Monocytes / Differential leukocytes: Neutrophils / Erythrocytes / Total leukocytes: i.p. 21 days; for Differential leukocytes: Eosinophils / Differential leukocytes: Lymphocytes / Differential leukocytes: Monocytes / Differential leukocytes: Neutrophils / Erythrocytes / Total leukocytes: peripheral blood
Protocol: HepG2 cells (1 × 10^7 cells per 500 µL) were implanted subcutaneously into the left front armpit of the mice. […] The treatments were initiated one day after the tumor cell injection. The animals were treated intraperitoneally (200 µL per animal) once daily for 21 consecutive days. On the 22nd day, the animals were anesthetized, and peripheral blood samples were collected from the brachial artery. Animals were euthanized by anesthetic overdose, and tumors were excised and weighed.
To assess the toxicological effects, mice were weighed at the beginning and at the end of the experiment. […] Hematological analysis was performed using light microscopy. Livers, kidneys, lungs and hearts were removed, weighed and examined for any signs of gross lesions, color changes and/or hemorrhages. After gross macroscopic examination, the tumors, livers, kidneys, lungs and hearts were fixed in 4% formalin buffer and embedded in paraffin. Tissue sections were stained with hematoxylin and eosin chromogens, and a pathologist performed the analysis under a light microscope.

HCT116 = type: cell-based, human; conditions: HCT116 (human colon carcinoma), 72 h
HepG2 = type: cell-based, human; conditions: HepG2 (human hepatocellular carcinoma), monolayer, 72 h
WT SV40 MEF = type: cell-based, mouse; conditions: 72 h
ACP-03 = type: cell-based, human
BAD KO SV40 MEF = type: cell-based, mouse; conditions: 72 h
B16-F10 = type: cell-based, mouse; conditions: B16-F10 (murine melanoma), 72 h
HT-29 = type: cell-based, human; conditions: HT-29 (human colon adenocarcinoma), 72 h
HSC-3 = type: cell-based, human; conditions: HSC-3 (human oral squamous cell carcinoma), 72 h
ACP-02 = type: cell-based, human
SCC-4 = type: cell-based, human; conditions: SCC-4 (human oral squamous cell carcinoma), 72 h
AGP-01 = AGP-01 (human ascitic gastric adenocarcinoma), 72 h
PBMC = type: cell-based; conditions: PBMC (human peripheral blood mononuclear cells, non-cancer), 72 h
MRC-5 = type: cell-based; conditions: MRC-5 (human lung fibroblast, non-cancer), 72 h
[2] = system: multicellular spheroids formed from HepG2 cells; test: 3D multicellular spheroid culture, alamar blue; type: cell-based, human; conditions: HepG2 3D spheroids, 72 h
Protocol: HepG2 cells were cultivated in 3D multicellular spheroids. Briefly, 100 μL of cell solution (0.5 × 10^6 cells/mL) was added to a 96-well plate with a cell-repellent surface (Greiner Bio-One, Kremsmünster, Austria) and cultured in complete medium plus 3% Matrigel (BD Biosciences, San Jose, CA, USA). Spheroids with stable structures formed after three days. Then, the spheroids were exposed to a range of drug concentrations for 72 h. The negative control received the vehicle that was used for diluting the complex tested. In the end of the experiment, morphological changes were examined by light microscopy (Olympus BX41, Tokyo, Japan) using Image-Pro software (Media Cybernetics, Inc. Silver Spring, USA), and cell viability was quantified by alamar blue assay as described above.

HaCAT = type: cell-based; conditions: HaCAT (human keratinocyte, non-cancer), 72 h
SCC-25 = type: cell-based, human; conditions: SCC-25 (human oral squamous cell carcinoma), 72 h
MCF-7 = type: cell-based, human; conditions: MCF-7 (human breast adenocarcinoma), 72 h
HepG2 cells [3] = test: Trypan blue exclusion assay; type: cell-based, human
SCC-9 = type: cell-based, human; conditions: SCC-9 (human oral squamous cell carcinoma), 72 h
HepG2 cells [4] = type: cell-based, human
Protocol: Briefly, the cells were harvested in a permeabilization solution containing 0.1% Triton X-100, 2 µg/mL PI, 0.1% sodium citrate and 100 µg/mL RNAse (all from Sigma-Aldrich) and incubated in the dark for 15 min at room temperature. Finally, cell fluorescence was measured by flow cytometry with a BD LSRFortessa cytometer using BD FACSDiva Software (BD Biosciences) and FlowJo Software 10 (FlowJo Lcc; Ashland, OR, USA). Ten thousand events were evaluated per experiment, and cellular debris was omitted from the analysis.

[5] = DOX 0.3 mg/kg, 5-FU 10 mg/kg, RCX 2.5 mg/kg
[6] = HepG2, 12 h, DOX 2 µM, OXA 10 µM, RCX 12 µM
[7] = HepG2, 24 h, DOX 2 µM, OXA 10 µM, RCX 12 µM
[8] = HepG2, 48 h, DOX 2 µM, OXA 10 µM, RCX 12 µM
[9] = HepG2, 72 h, DOX 2 µM, OXA 10 µM, RCX 12 µM
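For Final body weight in this document: mice bearing subcutaneous HepG2 xenografts, given intraperitoneal doses once daily for 21 days, weighed at start and end, blood leukocytes counted by light microscopy on day 22.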
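For Initial body weight in this document: mice bearing subcutaneous HepG2 xenografts, given intraperitoneal doses once daily for 21 days, weighed at start and end, blood leukocytes counted by light microscopy on day 22.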
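For liver histopathological characteristics in this document: mice bearing subcutaneous HepG2 xenografts, given intraperitoneal doses once daily for 21 days, weighed at start and end, blood leukocytes counted by light microscopy on day 22.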
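For lung histopathological characteristics in this document: mice bearing subcutaneous HepG2 xenografts, given intraperitoneal doses once daily for 21 days, weighed at start and end, blood leukocytes counted by light microscopy on day 22.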

COc1cc([O-])c(C(C)=O)c(OC)c1.F[P-](F)(F)(F)(F)F.[Ru+2].c1cnc2c(c1)ccc1cccnc12.c1cnc2c(c1)ccc1cccnc12 [RCX, cis-[Ru(phen)2(xant)](PF6)]
IC50 (SCC-15): 6.8 µM
lung histopathological characteristics ([1]; atelectasis, hemorrhage, inflammation, congestion, doxorubicin 0.3 mg/kg, RCX both doses, 21 days): more pronounced in the doxorubicin and RCX (both doses) groups than in the other groups
Initial body weight ([1]; DOX 0.3 mg/kg, 5-FU 10 mg/kg, RCX 2.5 mg/kg groups): 22.2 ± 0.5 g
Initial body weight ([1]; RCX 5 mg/kg group): 21.1 ± 0.4 g
liver histopathological characteristics ([1]; hydropic degeneration, dilatation, necrosis, inflammation, RCX 2.5 and 5 mg/kg, 21 days): more pronounced in the RCX groups than in the other groups
Final body weight [1, 5]: 20.6 ± 0.4 g
Survival [1, 5]: 14/14
Final body weight ([1]; RCX 5 mg/kg): 17.0 ± 0.4 g
Survival ([1]; RCX 5 mg/kg): 7/14
Differential leukocytes: Eosinophils [1, 5]: 1.0%
Differential leukocytes: Lymphocytes [1, 5]: 49.3%
Differential leukocytes: Monocytes [1, 5]: 1.0%
Differential leukocytes: Neutrophils [1, 5]: 48.3%
Erythrocytes [1, 5]: 9.0 ± 0.6 10^6cells/μL
Total leukocytes [1, 5]: 3.1 ± 0.5 10^3cells/μL
Differential leukocytes: Eosinophils ([1]; RCX 5 mg/kg): 1.0%
Differential leukocytes: Lymphocytes ([1]; RCX 5 mg/kg): 49.0%
Differential leukocytes: Monocytes ([1]; RCX 5 mg/kg): 1.0%
Differential leukocytes: Neutrophils ([1]; RCX 5 mg/kg): 49.0%
Erythrocytes ([1]; RCX 5 mg/kg): 8.3 ± 0.3 10^6cells/μL
Total leukocytes ([1]; RCX 5 mg/kg): 2.6 ± 0.2 10^3cells/μL
IC50 (HCT116): 1.6 µM
IC50 (HepG2): 13.5 µM
IC50 (WT SV40 MEF): 3.9 µM
selectivity index (SI) (ACP-03): 0.2
IC50 (ACP-03; ACP-03 (human gastric adenocarcinoma), 72 h): 26 µM
IC50 (BAD KO SV40 MEF): 4.1 µM
IC50 (B16-F10): 12.4 µM
IC50 (HT-29): 3.4 µM
IC50 (HSC-3): 7.7 µM
selectivity index (SI) (ACP-02): 0.3
IC50 (ACP-02; ACP-02 (human gastric adenocarcinoma), 72 h): 18.3 µM
IC50 (SCC-4): 5.3 µM
IC50 (AGP-01): 5.3 µM
IC50 (PBMC): 4.6 µM
IC50 (MRC-5): 21.3 µM
IC50 [2]: 8 µM
IC50 (HaCAT): 6.1 µM
IC50 (SCC-25): 6.5 µM
IC50 (MCF-7): 22.4 µM
reduction of the number of viable cells (HepG2 cells [3]; HepG2, 12 μM, 24 h): 57.2%
reduction of the number of viable cells (HepG2 cells [3]; HepG2, 12 μM, 48 h): 74.6%
reduction of the number of viable cells (HepG2 cells [3]; HepG2, 12 μM, 72 h): 73.8%
reduction of the number of viable cells (HepG2 cells [3]; HepG2, 24 μM, 24 h): 62.2%
reduction of the number of viable cells (HepG2 cells [3]; HepG2, 24 μM, 48 h): 73.9%
reduction of the number of viable cells (HepG2 cells [3]; HepG2, 24 μM, 72 h): 82.1%
change in the number of viable cells (HepG2 cells [3]; HepG2, 12 and 24 μM, 12 h): No significant decrease in the number of viable cells
IC50 (SCC-9): 3.4 µM
DNA content G0/G1 (HepG2 cells [4]; [6]): 66.4 ± 4.0%
DNA content G2/M (HepG2 cells [4]; [6]): 13.3 ± 1.1%
DNA content S (HepG2 cells [4]; [6]): 18.0 ± 7.4%
DNA content Sub-G0/G1 (HepG2 cells [4]; [6]): 9.6 ± 1.1 %
DNA content G0/G1 (HepG2 cells [4]; HepG2, 12 h, RCX 24 µM): 68.9 ± 2.2%
DNA content G2/M (HepG2 cells [4]; HepG2, 12 h, RCX 24 µM): 13.9 ± 1.6%
DNA content S (HepG2 cells [4]; HepG2, 12 h, RCX 24 µM): 8.6 ± 4.5%
DNA content Sub-G0/G1 (HepG2 cells [4]; HepG2, 12 h, RCX 24 µM): 13.0 ± 2.5 %
DNA content G0/G1 (HepG2 cells [4]; [7]): 38.2 ± 1.2 %
DNA content G2/M (HepG2 cells [4]; [7]): 17.6 ± 0.9%
DNA content S (HepG2 cells [4]; [7]): 22.4 ± 0.7 %
DNA content Sub-G0/G1 (HepG2 cells [4]; [7]): 15.3 ± 0.6 %
DNA content G0/G1 (HepG2 cells [4]; HepG2, 24 h, RCX 24 µM): 29.9 ± 2.7 %
DNA content G2/M (HepG2 cells [4]; HepG2, 24 h, RCX 24 µM): 13.0 ± 1.3%
DNA content S (HepG2 cells [4]; HepG2, 24 h, RCX 24 µM): 13.0 ± 1.6%
DNA content Sub-G0/G1 (HepG2 cells [4]; HepG2, 24 h, RCX 24 µM): 34.7 ± 1.4 %
DNA content G0/G1 (HepG2 cells [4]; [8]): 23.3 ± 2.0 %
DNA content G2/M (HepG2 cells [4]; [8]): 9.0 ± 0.8 %
DNA content S (HepG2 cells [4]; [8]): 11.5 ± 2.7%
DNA content Sub-G0/G1 (HepG2 cells [4]; [8]): 44.1 ± 6.3 %
DNA content G0/G1 (HepG2 cells [4]; HepG2, 48 h, RCX 24 µM): 18.9 ± 3.0 %
DNA content G2/M (HepG2 cells [4]; HepG2, 48 h, RCX 24 µM): 6.5 ± 0.7 %
DNA content S (HepG2 cells [4]; HepG2, 48 h, RCX 24 µM): 10.3 ± 1.3%
DNA content Sub-G0/G1 (HepG2 cells [4]; HepG2, 48 h, RCX 24 µM): 62.6 ± 3.4 %
DNA content G0/G1 (HepG2 cells [4]; [9]): 23.6 ± 1.9 %
DNA content G2/M (HepG2 cells [4]; [9]): 11.1 ± 1.8%
DNA content S (HepG2 cells [4]; [9]): 13.2 ± 0.8%
DNA content Sub-G0/G1 (HepG2 cells [4]; [9]): 42.6 ± 6.8 %
DNA content G0/G1 (HepG2 cells [4]; HepG2, 72 h, RCX 24 µM): 19.7 ± 3.3 %
DNA content G2/M (HepG2 cells [4]; HepG2, 72 h, RCX 24 µM): 6.7 ± 0.7%
DNA content S (HepG2 cells [4]; HepG2, 72 h, RCX 24 µM): 4.9 ± 1.1 %
DNA content Sub-G0/G1 (HepG2 cells [4]; HepG2, 72 h, RCX 24 µM): 68.2 ± 3.7 %
